First: COc1ccc(N2c3ccccc3CCC2c2ccccc2)cc1 (configuration not stated)
Second: COc1ccc2c(c1)N(Cc1ccccc1)C(=O)C1CCCC1=N2 (configuration not stated)
The melting point of the first is lower: 88 to 90 °C for the first, 105 to 107 °C for the second.

Compared with `CC(C)=NNc1ccc(OCC(C)NCC(O)COc2ccccc2C#N)nn1` (configuration not stated), `COC(=O)CCCOc1ccc2c(c1OC)N=C(C=C(O)c1cccnc1)N1CCN=C21` is higher in melting point: 121 to 123 °C for the first, 199 to 200 °C for the second.

Compared with `CNC(=O)c1cc(N)cc(N2CCOCC2)c1`, `CCCc1nc(NC)nc(N2CCOCC2)n1` is lower in melting point: 201 to 204 °C for the first, 131 to 133 °C for the second.

Compared with `O=C(Nc1ccc(-n2nc(C(F)(F)F)cc2C2CC2)c(F)c1)c1c(F)cccc1F`, `O=C(Nc1cccc(S(=O)(=O)C(F)(F)F)c1)c1cnn2c(C(F)F)cc(-c3ccc(C(F)(F)F)cc3)nc12` is higher in melting point: 193 to 196 °C for the first, 207 °C for the second.

First: Cc1cc(C=O)ccc1C=O
Second: Cc1c[nH]c(=O)n(Cc2ccccc2)c1=O
The melting point of the first is lower: 71 to 72 °C for the first, 208 to 210 °C for the second.

First: CC(C)c1cc(C(=O)O)c(N)c(C(C)C)c1
Second: O=C(O)c1cc(Br)cc2c1NCCS2=O (configuration not stated)
The melting point of the first is lower: 114 to 116 °C for the first, 254 to 255 °C for the second.

First: C#CC[C@]12C=CC(=O)C=C1CC[C@H]1[C@@H]3CCC(=O)[C@@]3(C)CC[C@@H]12
Second: CC12CCC3c4ccc(O)cc4CCC3C1CC(O)C2 (configuration not stated)
The melting point of the first is higher: 200 to 201 °C for the first, 181 to 182 °C for the second.

Compared with `COC(=O)c1cc(OC(C)C)nn1Cc1ccc(Cl)cc1Cl`, `COc1ccc(COc2ccc(CC(=O)O)cc2Cl)cc1Cl` is higher in melting point: 89 to 90 °C for the first, 150 to 151 °C for the second.

First: C=C1C(=O)c2cc(C)ccc2OC1c1ccccc1 (configuration not stated)
Second: Cc1cc(C(=O)O)ccc1C1=CCCc2ccccc21
The melting point of the first is lower: 57 to 63 °C for the first, 173 °C for the second.

First: CCOC(=O)Nc1cc(N(C)C)nc2nc(=O)on12
Second: CCOC(=O)c1c(O)c2ccc(C)nc2n(C)c1=O
The melting point of the first is higher: 230 to 240 °C for the first, 143 to 145 °C for the second.

First: C[C@@H]1S[C@@H](C(=O)O)Cc2cc3c(cc2C1=O)OCO3
Second: COC(=O)CCSc1cc(=O)c2c(O)cc(O)c(C3CCN(C)CC3O)c2o1 (configuration not stated)
The melting point of the first is higher: 192 to 193 °C for the first, 78 °C for the second.

First: O=C(N(C1CCNCC1)C1CC1)N1N=C2c3cc(F)ccc3OC[C@@H]2[C@@H]1c1ccccc1 (racemic)
Second: CN(c1ncccc1[N+](=O)[O-])C1CCN(Cc2ccccc2)CC1
The melting point of the first is higher: 142 °C for the first, 92 to 95 °C for the second.

First: O=C(NCc1ccc(F)cc1)c1ccnc(N2CCN(Cc3ccccn3)C2=O)c1
Second: O=C(OCc1ccc(OCCc2ccc(Cl)cc2)cc1)c1cccnc1
The melting point of the first is higher: 141 to 142 °C for the first, 77 to 78 °C for the second.

First: Cc1nc2c(Br)cccc2c(=O)n1C1CCC(=O)NC1=O (configuration not stated)
Second: CCc1cn(C2CC(O)C(CNC(=O)Cc3ccccc3Br)O2)c(=O)nc1N (configuration not stated)
The melting point of the first is higher: 307 to 309 °C for the first, 236 to 237 °C for the second.

First: CCOC(=O)c1sc(C)nc1S
Second: CCOC(=O)C1(O)CCSc2ccccc21 (configuration not stated)
The melting point of the first is lower: 62 to 66 °C for the first, 117 to 119 °C for the second.

Compared with `CC(C)(C)c1cc(-c2ccc(C(=O)O)cc2)cc(C(C)(C)C)c1O`, `CC(C)(Oc1ccc2c(-c3ccc(Cl)cc3)noc2c1)C(=O)O` is lower in melting point: over 240 °C for the first, 132 °C for the second.

First: COC(=O)C(Sc1nnnn1-c1ccccc1)N1C(=O)c2ccccc2S1(=O)=O (configuration not stated)
Second: Cc1c(CC(=O)N[C@@H](CO)C(=O)O)cc(-c2ccc(S(C)(=O)=O)cc2)n1-c1ccccc1
The melting point of the first is higher: 160 to 162 °C for the first, 80 to 83 °C for the second.

Compared with `COc1ccccc1NS(=O)(=O)c1ccc(F)cc1`, `CS(=O)(=O)c1ccc(-c2cc(C(=O)O)sc2-c2ccc(F)cc2)cc1` is higher in melting point: 101 to 102 °C for the first, 264 °C for the second.

First: COc1ccc(NC(=O)c2ccc(Br)cc2)cc1N1CCN(C)CC1
Second: COc1ccc(C(=O)N[C@H]2CCN(C)C[C@H]2c2ccc(OC)c(OC)c2)cc1 (relative stereo)
The melting point of the first is lower: 158 to 160 °C for the first, 223 to 226 °C for the second.

`O=[N+]([O-])c1cc(S(=O)(=O)NCCO)sc1Cl` and `O=[N+]([O-])c1ccc(N(CCO)CCO)cc1F` cannot be ordered by melting point: 99 °C for the first, 99 to 101 °C for the second.

Compared with `O=c1ccoc(C(O)c2ccccc2)c1OCc1ccccc1` (configuration not stated), `N#Cc1cccc(CN2C(=O)NC(c3ccccc3)(c3ccccc3)C2=O)c1` is higher in melting point: 121 to 122 °C for the first, 160 to 164 °C for the second.

Compared with `O=[N+]([O-])C1(F)C=C(OCC2CCCSC2)C(Cl)=CC1` (configuration not stated), `O=C(O)c1cc([N+](=O)[O-])ccc1C1SCCCS1` is higher in melting point: 100 to 103 °C for the first, 192 to 194 °C for the second.

First: COc1cccc(-c2ccc3c(c2)C2(CCCCC2)C(=NO)N3)c1
Second: COc1ccc2c(c1)Sc1nccnc1N2
The melting point of the first is lower: 101 to 104 °C for the first, 210 to 211 °C for the second.

First: CCCOc1cc([N+](=O)[O-])ccc1N
Second: CCC1(CC)OC(=O)c2cc(N)ccc21
The melting point of the first is lower: 59 to 61 °C for the first, 153 to 154 °C for the second.

First: CC(=O)C(=NNc1ccc([N+](=O)[O-])cc1)Sc1ccc(Cl)cc1
Second: CC(=NOCCC(N)=O)c1ccc(Cl)cc1
The melting point of the first is higher: 181 to 183 °C for the first, 149 to 150 °C for the second.

First: CC(=NOCCO)c1ccc(-c2ccc(F)cc2)cc1
Second: CCCOCCOc1ccc(-c2ccc3c(c2)C=C(C(=O)O)CCCN3CC(C)C)cc1
The melting point of the first is lower: 133 to 134 °C for the first, 142 to 144 °C for the second.

First: COc1cc(OC)cc(-c2ncoc2-c2ccc(OC(F)(F)F)c(N)c2)c1
Second: COc1cccc(N(C)C(=O)Oc2ccc(C(F)(F)F)cc2)n1
The melting point of the first is higher: 119 to 120 °C for the first, 85 to 86 °C for the second.

First: CCCN1c2nc(-c3cn[nH]c3)ccc2NC(=O)c2cccnc21
Second: CCOC(=O)c1ccc(Oc2cccc3[nH]c4cnc(C(=O)OC(C)C)c(COC)c4c23)o1
The melting point of the first is higher: 291 to 292 °C for the first, 191 to 192 °C for the second.

First: CCN(CC)C(=O)n1ccc(S(=O)(=O)c2cccc(Cl)c2Cl)n1
Second: CC(C)(CO)NS(=O)(=O)c1cc(NC(=O)c2cnn3c(C4CC4)cc(-c4ccc(Cl)cc4)nc23)c(Cl)s1
The melting point of the first is lower: 60 to 61.5 °C for the first, 238 to 241 °C for the second.

Compared with `COC(=O)c1ccc(C(=O)C2C(=O)N(C(N)=O)c3ccc(Cl)cc32)s1` (configuration not stated), `COC(=O)c1ccc(NC(C)=O)c(NC(=O)COC(C)=O)c1` is lower in melting point: 219 to 221 °C for the first, 182 to 186 °C for the second.

First: C=C(C)c1cn(-c2c(Cl)cc(C(F)(F)F)cc2Cl)nc1C#N
Second: COC(=N)c1nn(-c2c(Cl)cc(C(F)(F)F)cc2Cl)c(N)c1S(C)=O (configuration not stated)
The melting point of the first is lower: 63 to 64 °C for the first, 179 to 180 °C for the second.

First: CCOC(=O)CNC(=O)c1nc2ccc(NCCCN3CCC(OC(c4ccccc4)c4ccccc4)CC3)nn2n1
Second: c1ccc(CCCn2c(-c3ccc4c(c3)OCO4)nc3ccccc32)cc1
The melting point of the first is higher: 175 to 177 °C for the first, 99.8 to 100 °C for the second.

First: CN(c1ccccc1)N1C(=O)C(Cl)=C(c2ccc(Cl)cc2)C1=O
Second: COc1ccc2c(c1)c(C)cc(=O)n2Cc1ccccc1Cl
The melting point of the first is lower: 155 to 157 °C for the first, 177 to 179 °C for the second.

Compared with `COc1nccnc1NS(=O)(=O)c1scc(Cl)c1Cl`, `COc1ccc(NC=O)cn1` is lower in melting point: 152 °C for the first, 81 to 83 °C for the second.

Compared with `CN1C(=O)C(c2ccc(OC(F)F)cc2)(c2ccc(F)c(CCCC#N)c2)N=C1N` (configuration not stated), `CCOC(=O)CNc1c(C#N)cnn1-c1ccc(C(F)(F)F)cc1Cl` is higher in melting point: 65 to 70 °C for the first, 100 to 102 °C for the second.

First: CC(C)(C)NS(=O)(=O)c1cnc(-c2cn(-c3cc(-c4ccc(C(F)(F)F)cc4)cc(C(F)(F)F)n3)cn2)s1
Second: O=C(Nc1ccc(Br)cc1)Nc1cc(C(F)(F)F)ccc1Oc1ccccc1C(=O)O
The melting point of the first is higher: 252 °C for the first, 229 to 231 °C for the second.

Compared with `CON(C)C(=O)Nc1ccc(OCCc2ccc(C(C)(C)C)cc2)cc1`, `COc1ccc(C(c2ccc(OC)cc2)c2cnccc2C(=O)O)cc1` is higher in melting point: 14 to 15 °C for the first, 122 to 124 °C for the second.

Compared with `N#Cc1ncc(NCCO)nc1N1CCC(c2ccc(F)cc2)CC1`, `OC[C@@H]1CCc2ccc3ncccc3c2O1` is lower in melting point: 155 to 158 °C for the first, 128 °C for the second.

First: CCCCCCCN(CCCCCSc1nc(-c2ccccc2)c(-c2ccccc2)[nH]1)c1ncnc2nc[nH]c12
Second: O=C(O)CCc1cn(Cc2ccc(OCc3ccc(-c4ccccc4)cn3)cc2)cc1-c1ccccc1
The melting point of the first is lower: 58 to 60 °C for the first, 169 to 170 °C for the second.

First: CCN1Cc2ccccc2N(CC)C(Nc2nc(Nc3cc4c(cc3OC)CCN(CC(=O)N(C)C)CC4)ncc2Cl)C1 (configuration not stated)
Second: CCOc1ccc(CN2CCc3cc(O)ccc3C2)cc1OCC
The melting point of the first is lower: 85 to 90 °C for the first, 150 to 154 °C for the second.

First: CN(C)c1ccc(-c2cc3ncc(C#N)c(Cl)c3s2)cc1
Second: Oc1ccc(-c2nc(Br)c[nH]2)cc1
The melting point of the first is higher: 270 to 272 °C for the first, 210 to 212 °C for the second.

First: COCCN(C)c1nnc(-c2ccc(-c3ccccc3)nc2)n1-c1cccc2nonc12
Second: Cc1cccc(CN(Cc2cccc(C)n2)C(c2ccccn2)c2ccccn2)n1
The melting point of the first is lower: 133 to 134 °C for the first, 168 °C for the second.

First: COc1ccccc1C1CCN(C[C@@H](CC2CCCCC2)NC(=O)C2CCCCC2)CC1
Second: O=C(NCC1CCN(CC2(C(=O)O)CCC2)CC1)N1C(=O)C2(CCCC2)c2ccc(F)cc21
The melting point of the first is lower: 100 to 103 °C for the first, 150 °C for the second.

Compared with `COc1ccc(CCNC(=O)C(F)(F)F)cc1NS(C)(=O)=O`, `CCNC(=O)n1nc(Oc2c(Cl)cc(C(F)(F)F)cc2Cl)cc1C` is lower in melting point: 129 to 130 °C for the first, 80 to 82 °C for the second.

First: CCC1(Br)Cc2cc(OCC(=O)O)c(C)c(C)c2C1=O (configuration not stated)
Second: Cc1c(C)n(CC(F)(F)F)c2c(OCc3ccccc3)nncc12
The melting point of the first is higher: 136 to 139 °C for the first, 83 to 84 °C for the second.

First: C1=CCC2=c3cnc4ccccc4c3=NC2=C1
Second: O=C1CCC2(CCN1)Cc1ccccc1C2
The melting point of the first is lower: 146 to 148 °C for the first, 164 to 165 °C for the second.

Compared with `Nc1c(C(F)(F)F)cc(Cl)c2[nH]c(=O)c(=O)[nH]c12`, `CCCCCCNC(=O)n1nc(Oc2c(Cl)cc(C(F)(F)F)cc2Cl)c(Cl)c1C` is lower in melting point: over 360 °C for the first, 86 to 88 °C for the second.

Compared with `C=C(C(=O)OC)[C@@H](O)c1ccccc1`, `O=C(Nc1cc(Cl)ccc1O)c1cc(Cl)cc(Cl)c1` is higher in melting point: 48 °C for the first, 251 to 252 °C for the second.

Compared with `O=C(O)Cc1cccc(NC(=O)NC2C(=O)N(CC(=O)N3CCCC3)c3ccccc3N(CC(=O)N3CCCC3)C2=O)c1`, `CC(=O)Nc1ccn([C@@H]2CC[C@H](OC(C)=O)[C@@H](OC(C)=O)[C@H]2OC(C)=O)c(=O)n1` (racemic) is lower in melting point: 228 to 230 °C for the first, 226 °C for the second.

Compared with `CCCCCCCCCCCCCCCC(=O)OC(CCCCCCCCCCCCCCC)CC(=O)NCCC(=O)NC(CCC(=O)O)C(=O)O` (configuration not stated), `COC(CCCNC(=O)C1CCC(C(=O)NCCCC(OC)OC)CC1)OC` (configuration not stated) is higher in melting point: 100 to 104 °C for the first, 191 to 195 °C for the second.

First: CCCCCN1CC[C@@H](c2ccc(Cl)cc2)[C@H](CO)C1 (racemic)
Second: C[C@@H](O)Cn1ccc2cc(F)c(F)cc21
The melting point of the first is higher: 125 to 128 °C for the first, 114 to 116 °C for the second.

— a melting point compilation (Tetko et al.; mined from patent text by program, amines drawn as free bases though some values may be those of a salt)
